Measurements from patent US9169290B2, “Peptides and their use” (priority 2007, dated 2015).
≈ marks a conversion by molar mass, not a printed value. Like-named read-outs stand apart in the source and are kept apart here. Ends that are not written are not given here. Peptide text beside a SMILES is read from it.

How the values were obtained:
C. albicans = type: cell-based, Candida albicans
Experimental: (§1) Broth Dilution Antifungal Susceptibility Testing
(§2) The sensitivity of relevant fungal strains to the peptides was determined using Clinical Laboratory Standard Institute (CLSI; formerly NCCLS) Approved Standards.

Trichophyton rubrum = type: cell-based
Experimental: as §1, §2

C. krusei = type: cell-based, Candida krusei
Experimental: as §1, §2

Molecule	MIC, Candida albicans NCTC3179 (C. albicans) [µM]	MIC (C. albicans) [µM]	other results
CC(C)[C@H](NC(=O)[C@H](CCCNC(=N)N)NC(=O)[C@H](CCCNC(=N)N)NC(=O)[C@H](CCCNC(=N)N)NC(=O)[C@@H](N)CCCNC(=N)N)C(=O)N[C@H](C(=O)N[C@@H](CCCNC(=N)N)C(=O)N[C@@H](CCCNC(=N)N)C(=O)N[C@@H](CCCNC(=N)N)C(=O)N[C@@H](CCCNC(=N)N)C(=O)O)C(C)C [NP310]	>2000	–	MIC (Trichophyton rubrum): >2 µM
N=C(N)NCCC[C@H](NC(=O)[C@H](CCCNC(=N)N)NC(=O)[C@H](CCCNC(=N)N)NC(=O)[C@H](CCCNC(=N)N)NC(=O)[C@H](CCCNC(=N)N)NC(=O)[C@H](CCCNC(=N)N)NC(=O)[C@H](CCCNC(=N)N)NC(=O)[C@H](CCCNC(=N)N)NC(=O)[C@H](CCCNC(=N)N)NC(=O)[C@H](CCCNC(=N)N)NC(=O)[C@@H](N)CCCNC(=N)N)C(=O)O [NP350]	–	64 (≈ 111 µg/mL)	MIC (C. krusei): 8 µM (≈ 13.9 µg/mL)
N=C(N)NCCC[C@H](NC(=O)[C@H](CCCNC(=N)N)NC(=O)[C@H](CCCNC(=N)N)NC(=O)[C@H](CCCNC(=N)N)NC(=O)[C@H](CCCNC(=N)N)NC(=O)[C@H](CCCNC(=N)N)NC(=O)[C@H](CCCNC(=N)N)NC(=O)[C@H](CCCNC(=N)N)NC(=O)[C@H](CCCNC(=N)N)NC(=O)[C@H](CCCNC(=N)N)NC(=O)[C@H](CCCNC(=N)N)NC(=O)[C@H](CCCNC(=N)N)NC(=O)[C@@H](N)CCCNC(=N)N)C(=O)O [NP351]	–	4 (≈ 8.19 µg/mL)	MIC (C. krusei; C. krusei strain NCPF3953): 32 µM (≈ 65.6 µg/mL)
N=C(N)NCCC[C@H](NC(=O)[C@H](CCCNC(=N)N)NC(=O)[C@@H](N)CCCNC(=N)N)C(=O)O [NP356, RRR] (H-Arg-Arg-Arg-OH; N-terminus and C-terminus assumed)	–	>2048	–
N=C(N)NCCC[C@H](NC(=O)[C@H](CCCNC(=N)N)NC(=O)[C@H](CCCNC(=N)N)NC(=O)[C@H](CCCNC(=N)N)NC(=O)[C@H](CCCNC(=N)N)NC(=O)[C@H](CCCNC(=N)N)NC(=O)[C@@H](N)CCCNC(=N)N)C(=O)O [NP358, RRRRRRR]	–	>2048	–
GKKEKPEKKVKK [NP331]	>2000	–	–
ILRWPWWPWRRK-NH2 [NP354]	–	–	MIC (C. krusei; C. krusei strain NCPF3953): >2048 µM
KKKDKVKK [NP334]	>2000	–	–
KKKKK [NP343, KKKKK]	–	>2048	–
KKKKKEGKKQEKMLD [NP333]	>2000	–	–
KKKKKKK [NP344, KKKKKKK]	–	>2048	–
KKKKKKKKK [NP345]	–	>2048	–
KKKKKKKKKKK [NP346]	–	>2048	–
KKKKKKKKKKKKK [NP347]	–	–	MIC (C. albicans; C. albicans strain NCTC3179): >2048 µM
KKKKKKKKKKKKKKK [NP348]	–	–	MIC (C. albicans; C. albicans strain NCTC3179): >2048 µM
KLTKPKPQAESKKKKK [NP332]	>2000	–	–
KVRQGTLKKAR [NP335]	>2000	–	–
PKTKAKAKAKKGKGKD [NP336]	>2000	–	–
RRRRR [NP357, RRRRR]	–	>2048	–
RRRRWWRRRR [NP329]	256	1024	MIC, Candida albicans ATCC24433 (C. albicans): 512 µM; MIC (C. krusei): 32 µM; MIC, Candida krusei NCPF3953 (C. krusei): 32 µM

Molecule	MIC, Candida albicans NCTC3179 (C. albicans) [µM]	MIC (C. albicans) [µM]	other results
RRRVRRR [NP306, RRRVRRR]	>2000	–	MIC (Trichophyton rubrum): >2 µM
RRRVVRRR [NP308]	>2000	–	MIC (Trichophyton rubrum): >2 µM
RRRWRRR [NP325, RRRWRRR]	>2000	–	–
RRRWWRRR [NP327]	512	–	MIC, Candida albicans ATCC24433 (C. albicans): 1024 µM; MIC, Candida albicans ATCC90028 (C. albicans): 512 µM; MIC, Candida krusei NCPF3953 (C. krusei): 64 µM
RRVRR [NP303, RRVRR]	>2000	–	MIC (Trichophyton rubrum): >2 µM
RRVRRVRR [NP309]	>2000	–	MIC (Trichophyton rubrum): >2 µM
RRVRVR [NP304, RRVRVR]	>2000	–	MIC (Trichophyton rubrum): >2 µM
RRVRVRR [NP307, RRVRVRR]	>2000	–	MIC (Trichophyton rubrum): >2 µM
RRVVR [NP302, RRVVR]	>2000	–	MIC (Trichophyton rubrum): >2 µM
RRVVRR [NP305, RRVVRR]	>2000	–	MIC (Trichophyton rubrum): >2 µM
RRWRR [NP322, RRWRR]	>2000	–	–
RRWRRWRR [NP328]	1024	–	MIC, Candida albicans ATCC24433 (C. albicans): 1024 µM; MIC, Candida albicans ATCC90028 (C. albicans): 1024 µM; MIC (C. krusei): 128 µM; MIC, Candida krusei NCPF3953 (C. krusei): 128 µM
RRWRRWRR-OH [NP311]	>2000	–	–
RRWRWR [NP323, RRWRWR]	1024	–	MIC, Candida albicans ATCC24433 (C. albicans): 1024 µM; MIC, Candida albicans ATCC90028 (C. albicans): 2000 µM; MIC (C. krusei): 256 µM; MIC, Candida krusei NCPF3953 (C. krusei): 256 µM
RRWRWRR [NP326, RRWRWRR]	2000	1024	MIC, Candida albicans ATCC24433 (C. albicans): 1024 µM; MIC, Candida albicans ATCC90028 (C. albicans): 1024 µM; MIC (C. krusei): 128 µM; MIC, Candida krusei NCPF3953 (C. krusei): 128 µM
RRWWR [NP321, RRWWR]	>2000	–	–
RRWWRR [NP324, RRWWRR]	1024	1024	MIC, Candida albicans ATCC24433 (C. albicans): 1024 µM; MIC, Candida albicans ATCC90028 (C. albicans): 1024 µM; MIC (C. krusei): 256 µM; MIC, Candida krusei NCPF3953 (C. krusei): 256 µM
RVRVR [NP301, RVRVR]	>2000	–	MIC (Trichophyton rubrum): >2 µM
RWRWR [NP320, RWRWR]	>2000	–	–
